Reference: patent US20170044121A1, “TETRA-O-SUBSTITUTED BUTANE-BRIDGE MODIFIED NDGA DERIVATIVES, THEIR SYNTHESIS AND PHARMAECUTICAL USE” (Erimos Pharmaceuticals LLC, priority 2006, published 2017)
Read-outs that look alike come from different tables or passages of the source.

Columns and labels:
[1] = test system: TAT transactivation of the HIV-1 LTR promoter (TAT-TRS); assay: cells; format: cell-based; conditions: Human immunodeficiency virus 1, COS-7, 48 h, read-out: SEAP EC50
COS-7 cells = assay: MTT cytotoxicity in COS-7 cells (run with SEAP); format: cell-based, green monkey; conditions: Chlorocebus sabaeus
A549 (lung carcinoma) = assay: MTS cell viability assay, A549; format: cell-based
[2] = test system: HeLa (cervical adenocarcinoma); assay: MTS cell viability assay, HeLa; format: cell-based; conditions: Homo sapiens, HeLa, read-out: HeLa IC50
[3] = test system: apoptosis in cultured cells (DNA fragmentation); assay: TiterTACS DNA fragmentation apoptosis assay; format: cell-based; conditions: TiterTACS apoptosis detection
VEGF = assay: ELISA VEGF assay (DFO-induced hypoxia); format: cell-based; conditions: Homo sapiens, read-out: VEGF IC50
MCP-1 = MCP-1 protein production in TNF-α-treated primary human keratinocytes; format: cell-based; conditions: Keratinocyte, read-out: MCP-1 IC50
[4] = test system: NSCLC cell line panel (9 cell lines); conditions: NSCLC (9 cell lines), 48 hours, SRB
[5] = test system: Colon Cancer cell line panel (6 cell lines); conditions: Colon Cancer (6 cell lines), 48 hours, SRB
[6] = test system: Breast Cancer cell line panel (8 cell lines); conditions: Breast Cancer (8 cell lines), 48 hours, SRB
[7] = test system: Ovarian Cancer cell line panel (6 cell lines); conditions: Ovarian Cancer (6 cell lines), 48 hours, SRB
[8] = test system: Leukemia cell line panel (6 cell lines); conditions: Leukemia (6 cell lines), 48 hours, SRB
[9] = test system: Renal Cancer cell line panel (8 cell lines); conditions: Renal Cancer (8 cell lines), 48 hours, SRB
[10] = test system: Melanoma cell line panel (8 cell lines); conditions: Melanoma (8 cell lines), 48 hours, SRB
[11] = test system: Prostate cell line panel (1 cell line); conditions: Prostate (1 cell line), 48 hours, SRB
[12] = test system: CNS cell line panel (5 cell lines); conditions: CNS (5 cell lines), 48 hours, SRB
Caco-2 cell monolayers [13] = test system: Caco-2 cell monolayers
[14] = test system: NSCLC cell line panel (9 cell lines); assay: cells; conditions: Homo sapiens, 48 h, read-out: LC50
[15] = test system: Colon Cancer cell line panel (6 cell lines); assay: cells; conditions: Homo sapiens, 48 h, read-out: LC50
[16] = test system: Breast Cancer cell line panel (8 cell lines); assay: cells; conditions: Homo sapiens, 48 h, read-out: LC50
[17] = test system: Ovarian Cancer cell line panel (6 cell lines); assay: cells; conditions: Homo sapiens, 48 h, read-out: LC50
[18] = test system: Leukemia cell line panel (6 cell lines); assay: cells; conditions: Homo sapiens, 48 h, read-out: LC50
[19] = test system: Renal Cancer cell line panel (8 cell lines); assay: cells; conditions: Homo sapiens, 48 h, read-out: LC50
[20] = test system: Melanoma cell line panel (8 cell lines); assay: cells; conditions: Homo sapiens, 48 h, read-out: LC50
[21] = test system: Prostate cell line panel (1 cell line); assay: cells; conditions: Homo sapiens, 48 h, read-out: LC50
[22] = test system: CNS cell line panel (5 cell lines); assay: cells; conditions: Homo sapiens, 48 h, read-out: LC50
in vitro [23] = conditions: human
[24] = Non-specific binding to 24-well assay plate without cells; conditions: single well of a 24-well assay plate without cells
survivin = assay: ELISA survivin assay (cell lysates); format: cell-based; conditions: Homo sapiens, survivin protein in cell lysates
in vitro [25] = assay: in vitro
[26] = Caco-2 monolayer permeability study; conditions: human
Caco-2 cell monolayers [27] = assay: Caco-2 monolayer permeability study; conditions: Caco-2, nominal conc. 20 μM
[28] = human, Caco-2, 90 min, 1 μM, pH 7.4
[29] = 90 minutes, duplicate monolayers

c1cc(OCCCN2CCCCC2)c(OCCCN2CCCCC2)cc1CCCCc1ccc(OCCCN2CCCCC2)c(OCCCN2CCCCC2)c1 [Compound D, 1,4-bis{3,4-bis[3-(piperidin-1-yl)propoxy]phenyl}-butane]
EC50 [1]: 0.7 to 0.8 µM | IC50 (COS-7 cells; MTT assay, COS-7 test cells of the SEAP assay, read-out: COS-7 IC50): 0.8 to 0.9 µM | IC50 (A549 (lung carcinoma); MTS assay, read-out: A549 IC50): 1 to 2 µM | IC50 ([2]; MTS assay): 5 to 6 µM | DNA fragmentation [3]: Positive | IC50 (VEGF; VEGF released into media, ELISA): ~4 µM | IC50 (MCP-1; TNF-α-treated PHK, MCP-1 protein production, ELISA): 3 µM | Mean Growth Percent at 10 μM ([4]; 10 μM): 62.77% | TGI [4]: 7.31E−6 | Mean Growth Percent at 10 μM ([5]; 10 μM): 40.49% | TGI [5]: 6.45E−6 | Mean Growth Percent at 10 μM ([6]; 10 μM): 59.72% | TGI [6]: 2.11E−5 | Mean Growth Percent at 10 μM ([7]; 10 μM): 66.18% | TGI [7]: 1.46E−5 | Mean Growth Percent at 10 μM ([8]; 10 μM): 12.31% | TGI [8]: 4.28E−6 | Mean Growth Percent at 10 μM ([9]; 10 μM): 82.54% | TGI [9]: 1.70E−5 | Mean Growth Percent at 10 μM ([10]; 10 μM): 16.46% | TGI [10]: 7.74E−6 | Mean Growth Percent at 10 μM ([11]; 10 μM): 2.84% | TGI [11]: 2.76E−5 | Mean Growth Percent at 10 μM ([12]; 10 μM): 78.88% | TGI [12]: 4.13E−6 | BCS permeability class (Caco-2 cell monolayers [13]; Caco-2): moderate-to-high | Papp A to B (Caco-2 cell monolayers [13]; [28]): 14 ×10⁻⁶ cm/s | Papp B to A (Caco-2 cell monolayers [13]; [28]): 2.51 ×10⁻⁶ cm/s | Polarization Ratio [B-A/A-B] (Caco-2 cell monolayers [13]; [28]): 0.18 | CC50 [14]: 28.4 µM | CC50 [15]: 22.8 µM | CC50 [16]: 30.8 µM | CC50 [17]: 35.3 µM | CC50 [18]: 13.4 µM | CC50 [19]: 37 µM | CC50 [20]: 15.9 µM | CC50 [21]: 53.9 µM | CC50 [22]: 11 µM | Papp A→B at 90 min, 1 μM (in vitro [23]; Caco-2, pH 7.4, Papp A to B): 13.8 ×10⁻⁶ cm/s | Papp B→A at 90 min, 1 μM (in vitro [23]; Caco-2, pH 7.4, Papp B to A): 2.35 ×10⁻⁶ cm/s | efflux ratio at 90 min, 1 μM (in vitro [23]; Caco-2, pH 7.4, Polarization Ratio [B-A/A-B]): 0.1 to 0.2 | recovery at 90 min, 1 μM [24]: 35%

CN(C)CCOc1ccc(CCCCc2ccc(OCCN(C)C)c(OCCN(C)C)c2)cc1OCCN(C)C [Compound H, 1,4-bis{3,4-bis(2-(N,N′-dimethylamino)-ethoxy)phenyl}-butane]
EC50 [1]: 30 to 40 µM | IC50 (COS-7 cells; COS-7, read-out: COS-7 IC50): 20 to 30 µM | IC50 (A549 (lung carcinoma); Homo sapiens, A549, read-out: A549 IC50): 20 to 40 µM | IC50 [2]: 20 to 30 µM | DNA fragmentation [3]: Positive | IC50 (survivin): ~25 µM | IC50 (VEGF): > 60 µM | IC50 (MCP-1): 75 µM | melting point: 65 to 67 °C | recovery at 90 min, 20 μM (in vitro [25]): 96% | Papp B→A at 90 min, 20 μM ([26]; Caco-2, pH 7.4): 10.1 ×10⁻⁶ cm/s | Papp A→B at 90 min ([26]; Caco-2, pH 7.4, BCS permeability class, from A-B Papp in Caco-2 versus mannitol and propranolol): > 14.2 ×10⁻⁶ cm/s | Papp A→B at 90 min, 20 μM ([26]; Caco-2, pH 7.4, Papp A to B, Caco-2, nominal conc. 20 μM, 90 minutes, duplicate monolayers): 66.7 ×10⁻⁶ cm/s | efflux ratio at 90 min, 20 μM ([26]; Caco-2, pH 7.4, Polarization Ratio [B-A/A-B], Caco-2, nominal conc. 20 μM): 0.1 to 0.2 | Polarization Ratio [B-A/A-B] (Caco-2 cell monolayers [27]): 0.15 | Papp A to B (Caco-2 cell monolayers [27]; [29]): 64.4 ×10⁻⁶ cm/s | Papp B to A (Caco-2 cell monolayers [27]; [29]): 10.1 ×10⁻⁶ cm/s | Mass Balance A to B (Caco-2 cell monolayers [27]; recovery from apical and basolateral chambers, duplicates): ≧100%
